Source: ChEMBL document CHEMBL3352476, “Antimicrobial Constituents of the Mature Carpels of Manglietiastrum sinicum” (J Nat Prod, 2014)
Values after ≈ are worked out from the molar mass of the structure shown. Where a name gives a salt, the structure may show the parent alone. Active and inactive are the calls of the source. No cut-off for these calls is given here.

Tests used:
Staphylococcus aureus [1] = experiment: Antimicrobial activity against methicillin-resistant Staphylococcus aureus 98 by 2-fold dilution assay; assay type: functional
Staphylococcus aureus [2] = experiment: Antimicrobial activity against methicillin-resistant Staphylococcus aureus 92 by 2-fold dilution assay; assay type: functional
Staphylococcus aureus [3] = experiment: Antimicrobial activity against Staphylococcus aureus by 2-fold dilution assay; assay type: functional
Staphylococcus aureus [4] = experiment: Antimicrobial activity against methicillin-resistant Staphylococcus aureus 82 by 2-fold dilution assay; assay type: functional
Staphylococcus aureus [5] = experiment: Antimicrobial activity against methicillin-resistant Staphylococcus aureus 331 by 2-fold dilution assay; assay type: functional
Platelet [6] = experiment: Inhibition of PAF-induced platelet aggregation in rabbit platelet rich plasma at 200 ug/ml preincubated for 10 mins before addition of inducer by aggregometry; assay type: functional; conditions: Oryctolagus cuniculus
[7] = Cytotoxicity against human SSMC-7721 cells by MTT assay; assay type: functional, cell-based
SW480 = experiment: Cytotoxicity against human SW480 cells by MTT assay; assay type: functional, cell-based
A549 = experiment: Cytotoxicity against human A549 cells by MTT assay; assay type: functional, cell-based
[8] = Cytotoxicity against human HL60 cells by MTT assay; assay type: functional, cell-based; conditions: HL-60
Platelet [9] = experiment: Inhibition of arachidonic acid-induced platelet aggregation in rabbit platelet rich plasma at 200 ug/ml preincubated for 10 mins before addition of inducer by aggregometry; assay type: functional; conditions: Oryctolagus cuniculus
MCF7 = experiment: Cytotoxicity against human MCF7 cells by MTT assay; assay type: functional, cell-based
Platelet [10] = experiment: Inhibition of ADP-induced platelet aggregation in rabbit platelet rich plasma at 200 ug/ml preincubated for 10 mins before addition of inducer by aggregometry; assay type: functional; conditions: Oryctolagus cuniculus
Staphylococcus aureus [11] = experiment: Antimicrobial activity against Staphylococcus aureus by agar plate punch assay; assay type: functional

SMILES | MIC (Staphylococcus aureus [1]) [µM] | MIC (Staphylococcus aureus [2]) [µM] | MIC (Staphylococcus aureus [3]) [µM] | MIC (Staphylococcus aureus [4]) [µM] | MIC (Staphylococcus aureus [5]) [µM] | inhibition (Platelet [6]) | IC50 [7] [µM] | IC50 (SW480) [µM] | IC50 (A549) [µM] | IC50 [8] [µM] | inhibition (Platelet [9]) | IC50 (MCF7) [µM] | inhibition (Platelet [10]) | diameter of the inhibition zone (DIZ) (Staphylococcus aureus [11]) [mm]
CN[C@H](CC(C)C)C(=O)N[C@H]1C(=O)N[C@@H](CC(N)=O)C(=O)N[C@H]2C(=O)N[C@H]3C(=O)N[C@H](C(=O)N[C@H](C(=O)O)c4cc(O)cc(O)c4-c4cc3ccc4O)[C@H](O)c3ccc(c(Cl)c3)Oc3cc2cc(c3O[C@@H]2O[C@H](CO)[C@@H](O)[C@H](O)[C@H]2O[C@H]2C[C@](C)(N)[C@H](O)[C@H](C)O2)Oc2ccc(cc2Cl)[C@H]1O [VANCOMYCIN HYDROCHLORIDE] | 0.54 | 0.54 | 1.1 | 0.54 | 0.54 |  |  |  |  |  |  |  |  | 
COc1cc2c(cc1O)[C@@H]1O[C@H](c3cc4c(c(OC)c3-2)OCO4)[C@H](C)[C@@H]1C | 34 (≈ 12.6 µg/mL) | 68 (≈ 25.2 µg/mL) | 68 (≈ 25.2 µg/mL) | 140 (≈ 51.9 µg/mL) | 140 (≈ 51.9 µg/mL) | inactive | 38.2 | > 40 | > 40 | 17 | inactive | > 40 | inactive | 
COc1cc(C(=O)O[C@@H](c2cc(OC)c(OC)c(OC)c2)[C@H](C)C(C)=O)ccc1O |  |  |  |  |  | inactive | > 40 | > 40 | > 40 | > 40 | inactive | > 40 | inactive | <10
COc1cc([C@H]2O[C@@H](c3ccc4c(c3)OCO4)[C@H](C)[C@@H]2C)cc(O)c1OC | 34 (≈ 12.7 µg/mL) | 67 (≈ 25 µg/mL) | 67 (≈ 25 µg/mL) | 67 (≈ 25 µg/mL) | 130 (≈ 48.4 µg/mL) | inactive | > 40 | 19.1 | 27.4 | 39.8 | inactive | 14 | inactive | 
COC1=CC2(C=C(OC)C1=O)C[C@@H](C)[C@H](C)Cc1cc3c(c(OC)c12)OCO3 | 16 (≈ 6.18 µg/mL) | 65 (≈ 25.1 µg/mL) | 130 (≈ 50.2 µg/mL) | 65 (≈ 25.1 µg/mL) | 32 (≈ 12.4 µg/mL) | inactive | > 40 | > 40 | > 40 | > 40 | inactive | > 40 | inactive | 
COc1cc([C@@H]2O[C@H](c3cc(O)c(OC)c(OC)c3)[C@@H](C)[C@@H]2C)ccc1O | 130 (≈ 48.7 µg/mL) | 130 (≈ 48.7 µg/mL) | 130 (≈ 48.7 µg/mL) | 67 (≈ 25.1 µg/mL) | 130 (≈ 48.7 µg/mL) | inactive | > 40 | > 40 | > 40 | > 40 | inactive | > 40 | inactive | 
COc1cc(C(=O)O[C@@H](c2cc(O)c(OC)c(OC)c2)[C@H](C)C(C)=O)cc(O)c1OC |  |  |  |  |  | inactive | > 40 | > 40 | > 40 | > 40 | inactive | > 40 | inactive | <10
COc1cc([C@@H]2O[C@H](c3ccc4c(c3)OCO4)[C@H](C)[C@H]2C)cc(O)c1OC | 67 (≈ 25 µg/mL) | 67 (≈ 25 µg/mL) | 67 (≈ 25 µg/mL) | 67 (≈ 25 µg/mL) | 34 (≈ 12.7 µg/mL) | inactive | > 40 | > 40 | > 40 | > 40 | inactive | > 40 | inactive | 
